Blank lines part the entries; values can stand above or below the molecule they belong to.
Experiments:
[1] = target: T1, Adrenergic receptor alpha-2 (Rattus norvegicus) (UniProt P22086+P19328+P22909); assay: In vitro agonist activity against alpha-2A adrenergic receptor in rat vas deferens; type: functional, tissue-based
[2] = target: T2, Adrenergic receptor alpha-1 (Rattus norvegicus) (UniProt P15823+P23944+P43140); assay: In vitro antagonistic activity against alpha-1 adrenergic receptor in rat anococcygeus; type: functional
[3] = target: T1, Adrenergic receptor alpha-2 (Rattus norvegicus); assay: In vitro antagonistic activity against alpha-2A adrenergic receptor in rat vas deferens; type: functional, tissue-based
[4] = target: T2, Adrenergic receptor alpha-1 (Rattus norvegicus); assay: In vitro agonist activity against alpha-1 adrenergic receptor in rat anococcygeus; type: functional
Rattus norvegicus [5] = species on record: Rattus norvegicus; assay: Antagonist activity against guanoxabenz-induced mydriasis in rat when given […]; type: functional
[6] = target: T1, Adrenergic receptor alpha-2 (Rattus norvegicus); assay: Antagonistic potency towards alpha-2 adrenergic receptor was determined by observing twich response of rat vas deferens after i.v. administration; type: functional, organism-based
Rattus norvegicus [7] = species on record: Rattus norvegicus; assay: Maximum percent inhibition electrically evoked contractions of rat vas deferens by the compound was determined as test for its agonistic activity; type: functional
[8] = target: T2, Adrenergic receptor alpha-1 (Rattus norvegicus); assay: In vitro antagonistic activity against alpha-1 adrenergic receptor in rat anococcygeus; Ag means compound was agonist.; type: functional; conditions: filed as agonist
[9] = target: T1, Adrenergic receptor alpha-2 (Rattus norvegicus); assay: In vitro antagonistic activity against alpha-2A adrenergic receptor in rat vas deferens; Ag means compound was agonist.; type: functional; conditions: filed as agonist
Rattus norvegicus [10] = assay: Effective dose of the compound required to inhibit electrically evoked contractions of rat vas deferens after i.v. administration; type: functional; conditions: iv
Rattus norvegicus [11] = species on record: Rattus norvegicus; assay: Antagonist potency for alpha 2 adrenoceptor; type: functional, organism-based; conditions: read-out: pA2 (converted)
[12] = target: T1, Adrenergic receptor alpha-2 (Rattus norvegicus); conditions: Vas deferens
Description: Inhibitory activity against Alpha-2 adrenergic receptor in rat vas deferens

[13] = target: T2, Adrenergic receptor alpha-1 (Rattus norvegicus); assay: In vitro antagonistic activity against alpha1 adrenoceptor in rat anococcygeus; Ag means compound was agonist.; type: functional; conditions: filed as agonist
[14] = target: T2, Adrenergic receptor alpha-1 (Rattus norvegicus); assay: In vitro agonist activity against alpha-1 adrenoceptor in rat anococcygeus; type: functional
[15] = target: T1, Adrenergic receptor alpha-2 (Rattus norvegicus); assay: In vitro antagonistic activity against Alpha-2 adrenergic receptor in rat vas deferens; Ag means compound was agonist.; type: functional; conditions: filed as agonist
[16] = target: T1, Adrenergic receptor alpha-2 (Rattus norvegicus); assay: In vitro agonist activity against Alpha-2 adrenergic receptor in rat vas deferens; type: functional, tissue-based
[17] = target: T1, Adrenergic receptor alpha-2 (Rattus norvegicus); assay: In vitro agonist activity against alpha-2 adrenoceptor in rat vas deferens; type: functional, tissue-based
[18] = target: T1, Adrenergic receptor alpha-2 (Rattus norvegicus); assay: In vitro antagonistic activity against alpha-2 adrenoceptor in rat vas deferens; Ag means compound was agonist.; type: functional; conditions: filed as agonist
[19] = target: T1, Adrenergic receptor alpha-2 (Rattus norvegicus); assay: In vitro antagonistic activity against alpha-2 adrenoceptor in rat vas deferens; type: functional, tissue-based
[20] = target: T2, Adrenergic receptor alpha-1 (Rattus norvegicus); assay: In vitro antagonistic activity against Alpha-1 adrenergic receptor in rat anococcygeus; type: functional

Structure (SMILES): c1cc2c(cc1NC1=NCCN1)OCO2
- Potency [1]: 0.03
- Potency [2]: 0.003
- Potency [3]: 0.025
- Potency [4]: 0

Structure (SMILES): c1ccc2c(c1)OCC(C1=NCCN1)O2 (centres undefined) [IDAZOXAN]
- AD50 (Rattus norvegicus [5]): 29.36 µg/kg
- DR2 (ug min-1 kg-1) [6]: 2
- Kb (Rattus norvegicus [11]): 10.5 nM

Structure (SMILES): Nc1cc(Cl)c(N=C2NCCN2)c(Cl)c1
- IC40 [12]: 1.99 nM

Structure (SMILES): c1cc2c(cc1NC1=NCCN1)OCCO2
- Potency [13]: Agonist
- Potency [14]: 0.01
- Potency [15]: Agonist
- Potency [16]: 1.5

Structure (SMILES): Clc1cccc(Cl)c1NC1=NCCN1
- Potency [17]: 0.49
- Potency [13]: Agonist
- Potency [14]: 0.8
- Potency [18]: Agonist

Structure (SMILES): O=C1COc2cc(NC3=NCCN3)ccc2N1
- Potency [17]: 0
- Potency [13]: Agonist
- Potency [14]: 0.006
- Potency [19]: 0.0013

Structure (SMILES): O=C1COc2ccc(NC3=NCCN3)cc2N1
- Potency [1]: 0
- Potency [8]: Agonist
- Potency [3]: 0.0005
- Potency [4]: 0.002

Structure (SMILES): Brc1c(NC2=NCCN2)ccc2nccnc12 [BRIMONIDINE]
- Inhibition (Rattus norvegicus [7]): 100%
- ED40 (Rattus norvegicus [10]): 0.0033 mg/kg

Second part, led by results:

- Potency [1]: 0.03
- DR2 (ug min-1 kg-1) [6]: 4.62
- Activity [8]: Agonist
- Potency [4]: 0.0002
- Activity [9]: Agonist
Structure (SMILES): CN1CCOc2cc(NC3=NCCN3)ccc21.I
- AD50 (Rattus norvegicus [5]): 58.9 µg/kg
- Inhibition (Rattus norvegicus [7]): 65%
- ED40 (Rattus norvegicus [10]): 6.74 mg/kg

- Potency [1]: 0
- Potency [8]: Agonist
- Potency [3]: 0.04
- Potency [4]: 0.17
Structure (SMILES): CCN1CCc2ccc(NC3=NCCN3)cc21

- Potency [1]: 0.025
- Potency [8]: Agonist
- Potency [4]: 0.5
- Potency [9]: Agonist
Structure (SMILES): CN1CCOc2ccc(NC3=NCCN3)cc21

- Potency [1]: 0.22
- Potency [2]: 0.0005
- Potency [4]: 0
- Potency [9]: Agonist
Structure (SMILES): CS(=O)(=O)N1CCOc2ccc(NC3=NCCN3)cc21.I
- AD50 (Rattus norvegicus [5]): >300 µg/kg
- Inhibition (Rattus norvegicus [7]): 70%
- ED40 (Rattus norvegicus [10]): 0.0273 mg/kg

- Potency [1]: 0.006
- Potency [2]: 2e-05
- Potency [4]: 0
- Potency [9]: Agonist
Structure (SMILES): CC(=O)N1CCc2ccc(NC3=NCCN3)cc21

- Potency [1]: 0.1
- Potency [2]: 0.0006
- Potency [4]: 0
- Potency [9]: Agonist
Structure (SMILES): CC(=O)N1CCOc2ccc(NC3=NCCN3)cc21.I
- AD50 (Rattus norvegicus [5]): >200 µg/kg
- Inhibition (Rattus norvegicus [7]): 69%
- ED40 (Rattus norvegicus [10]): 0.0179 mg/kg

- Potency [1]: 0.02
- Potency [2]: 0.001
- Potency [4]: 0
- Potency [9]: Agonist
Structure (SMILES): c1ccc(CN2CCOc3cc(NC4=NCCN4)ccc32)cc1

- Potency [1]: < 0.01
- Potency [8]: Agonist
- Potency [4]: 0.055
- Potency [9]: Agonist
Structure (SMILES): CCN1CCOc2cc(NC3=NCCN3)ccc21

- Potency [1]: 0.02
- DR2 (ug min-1 kg-1) [6]: 6.8
- Potency [20]: 0.0006
- Potency [9]: Agonist
Structure (SMILES): I.O=CN1CCOc2ccc(NC3=NCCN3)cc21
- AD50 (Rattus norvegicus [5]): 297 µg/kg
- Inhibition (Rattus norvegicus [7]): 62%
- ED40 (Rattus norvegicus [10]): 0.385 mg/kg

- Potency [17]: 0.006
- Potency [13]: Agonist
- Potency [14]: 0.02
- Potency [18]: Agonist
Structure (SMILES): O=CN1CCOc2cc(NC3=NCCN3)ccc21

— ChEMBL document CHEMBL1124536, “Heteroaromatic analogues of the alpha 2-adrenoreceptor partial agonist clonidine” (J Med Chem, 1989)
